Experimental data: US11524968B2, “Heterocyclic compound as a protein kinase inhibitor” (HK inno.N Corporation, priority 2017, dated 2022)

Target: JAK1 (Homo sapiens (Human), UniProt P23458)
Test: Analysis of JAK1 activity inhibition ability (ADP-Glo Kinase Assay)
Assay type: biochemical
Conditions: JAK1 enzyme, ADP-Glo luminescence, ATP 250 uM, IRS-itide substrate, 30° C. 40 minutes; read-out: IC50
Summary of the method: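 ADP-Glo luminescence read-out of ADP production, with IC50 taken as the concentration halving JAK1 activity relative to control. Enzyme was incubated 40 min at 30 °C with compound, IRS-itide (40 ng/mL) and ATP (250 uM), concentrations as prepared in pH 7.5 Tris-HCl/MgCl2/BSA/DTT buffer.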

JAK1, sequence (P23458 whole entry): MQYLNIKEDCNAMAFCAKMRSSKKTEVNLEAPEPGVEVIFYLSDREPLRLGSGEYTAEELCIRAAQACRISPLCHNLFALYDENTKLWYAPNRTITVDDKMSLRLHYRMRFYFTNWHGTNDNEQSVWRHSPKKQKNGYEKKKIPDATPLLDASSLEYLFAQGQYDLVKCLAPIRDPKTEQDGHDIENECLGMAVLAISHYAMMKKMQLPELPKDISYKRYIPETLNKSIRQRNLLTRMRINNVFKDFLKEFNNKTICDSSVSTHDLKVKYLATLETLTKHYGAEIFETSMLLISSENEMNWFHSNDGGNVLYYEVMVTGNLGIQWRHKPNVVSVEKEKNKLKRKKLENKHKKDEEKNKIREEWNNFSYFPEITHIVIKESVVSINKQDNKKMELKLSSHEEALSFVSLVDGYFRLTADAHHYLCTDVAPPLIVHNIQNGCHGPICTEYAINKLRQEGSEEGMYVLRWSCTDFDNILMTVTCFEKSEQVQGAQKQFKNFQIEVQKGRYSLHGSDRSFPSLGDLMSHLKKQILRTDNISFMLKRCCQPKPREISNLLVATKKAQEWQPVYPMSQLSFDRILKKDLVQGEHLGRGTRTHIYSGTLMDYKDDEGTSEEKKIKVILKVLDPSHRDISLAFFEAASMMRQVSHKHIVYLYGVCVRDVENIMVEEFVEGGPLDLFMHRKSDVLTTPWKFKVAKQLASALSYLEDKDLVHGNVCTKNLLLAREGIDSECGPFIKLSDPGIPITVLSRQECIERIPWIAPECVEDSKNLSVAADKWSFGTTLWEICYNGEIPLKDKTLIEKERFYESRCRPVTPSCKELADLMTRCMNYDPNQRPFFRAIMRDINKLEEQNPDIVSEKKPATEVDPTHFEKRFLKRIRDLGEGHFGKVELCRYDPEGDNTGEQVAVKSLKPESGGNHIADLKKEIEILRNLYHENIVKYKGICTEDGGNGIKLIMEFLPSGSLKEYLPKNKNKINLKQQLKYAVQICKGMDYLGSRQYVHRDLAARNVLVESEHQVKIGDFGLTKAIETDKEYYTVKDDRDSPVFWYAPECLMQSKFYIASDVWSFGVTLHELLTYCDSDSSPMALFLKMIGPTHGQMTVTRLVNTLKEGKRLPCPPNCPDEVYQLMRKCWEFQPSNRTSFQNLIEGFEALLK

SMILES	IC50 [nM]
CC1CN(C(=O)OC(C)(C)C)CC=C1c1cc(NC(=O)C2CC2)nc2[nH]ccc12 (stereo not drawn) [Example 456, tert-butyl 4-(6-(cyclopropanecarboxamido)-1H-pyrrolo[2,3-b]pyridin-4-yl)-3-methyl-3,6-dihydropyridine-1 (2H)-carboxylate]	> 200
Cc1c(NC(=O)C2CC2)nc2[nH]ccc2c1C1=CCN(C(=O)OC(C)(C)C)CC1 [Example 457, tert-butyl 4-(6-(cyclopropanecarboxamido)-5-methyl-1H-pyrrolo[2,3-b]pyridin-4-yl)-3,6-dihydropyridine-1 (2H)-carboxylate]	> 200
CC(C)(C)OC(=O)N1C=C(c2cc(NC(=O)C3CC3)nc3[nH]ccc23)CCC1 [Example 459, tert-butyl 5-(6-(cyclopropanecarboxamido)-1H-pyrrolo[2,3-b]pyridin-4-yl)-3,4-dihydropyridine-1 (2H)-carboxylate]	> 200
CC(C)(C)OC(=O)N1CC=C(c2cc(NC(=O)C3CC3)nc3[nH]ccc23)C1 [Example 461, tert-butyl 3-(6-(cyclopropanecarboxamido)-1H-pyrrolo[2,3-b]pyridin-4-yl)-2,5-dihydro-1H-pyrrole-1-carboxylate]	> 200
CCNC(=S)Nc1ccc(-c2cc(NC(=O)C3CC3)nc3[nH]ccc23)cc1 [Example 462, N-(4-(4-(3-ethylthioureido)phenyl)-1H-pyrrolo[2,3-b]pyridin-6-yl)cyclopropanecarboxamide]	20 to 200
CCCCNC(=S)Nc1ccc(-c2cc(NC(=O)C3CC3)nc3[nH]ccc23)cc1 [Example 463, N-(4-(4-(3-butylthioureido)phenyl)-1H-pyrrolo[2,3-b]pyridin-6-yl)cyclopropanecarboxamide]	> 200
O=C(Nc1nc(-c2ccc(NC(=S)NC3CCCCC3)cc2)c2cc[nH]c2n1)C1CC1 [Example 464, N-(4-(4-(3-cyclohexylthioureido)phenyl)-7H-pyrrolo[2,3-d]pyrimidin-2-yl)cyclopropanecarboxamide]	> 200
CCCCNC(=S)Nc1ccc(-c2nc(NC(=O)C3CC3)nc3[nH]ccc23)cc1 [Example 465, N-(4-(4-(3-butylthioureido)phenyl)-7H-pyrrolo[2,3-d]pyrimidin-2-yl)cyclopropanecarboxamide]	20 to 200
CCNC(=S)N1C2C=C(c3cc(NC(=O)C4CC4)nc4[nH]ccc34)CC1CC2 (stereo not drawn) [Example 469, N-(4-(8-(ethylcarbamothioyl)-8-azabicyclo[3.2.1]oct-2-en-3-yl)-1H-pyrrolo[2,3-b]pyridin-6-yl)cyclopropanecarboxamide]	< 20
O=C(Nc1cc(-c2ccc(NCC3CCCCC3)cc2)c2cc[nH]c2n1)C1CC1 [Example 471, N-(4-(4-((cyclohexylmethyl)amino)phenyl)-1H-pyrrolo[2,3-b]pyridin-6-yl)cyclopropanecarboxamide]	> 200
O=C(Nc1cc(-c2ccc(NCc3ccccc3)cc2)c2cc[nH]c2n1)C1CC1 [Example 472, N-(4-(4-(benzylamino)phenyl)-1H-pyrrolo[2,3-b]pyridin-6-yl)cyclopropanecarboxamide]	> 200
O=C(Nc1nc(-c2ccc(NCc3ccc(F)cc3)cc2)c2cc[nH]c2n1)C1CC1 [Example 473, N-(4-(4-((4-fluorobenzyl)amino)phenyl)-7H-pyrrolo[2,3-d]pyrimidin-2-yl)cyclopropanecarboxamide]	< 20
N#CCCn1cc(-c2cc(NC(=O)C3CC3)nc3[nH]ccc23)cn1 [Example 477, N-(4-(1-(2-cyanoethyl)-1H-pyrazol-4-yl)-1H-pyrrolo[2,3-b]pyridin-6-yl)cyclopropanecarboxamide]	< 20
O=C(Nc1cc(-c2cnn(CC3CC3)c2)c2cc[nH]c2n1)C1CC1 [Example 478, N-(4-(1-(cyclopropylmethyl)-1H-pyrazol-4-yl)-1H-pyrrolo[2,3-b]pyridin-6-yl)cyclopropanecarboxamide]	< 20
Cc1nn(CCC#N)c(C)c1-c1cc(NC(=O)C2CC2)nc2[nH]ccc12 [Example 480, N-(4-(1-(2-cyanoethyl)-3,5-dimethyl-1H-pyrazol-4-yl)-1H-pyrrolo[2,3-b]pyridin-6-yl)cyclopropanecarboxamide]	20 to 200
O=C(Nc1cc(-c2cn(Cc3ccccc3)nn2)c2cc[nH]c2n1)C1CC1 [Example 481, N-(4-(1-benzyl-1H-1,2,3-triazol-4-yl)-1H-pyrrolo[2,3-b]pyridin-6-yl)cyclopropanecarboxamide]	20 to 200

Continued, values first:

IC50 [nM]	SMILES
> 200	CCC1CN(C(=O)OC(C)(C)C)CC=C1c1cc(NC(=O)C2CC2)nc2[nH]ccc12 (stereo not drawn) [Example 458, tert-butyl 4-(6-(cyclopropanecarboxamido)-1H-pyrrolo[2,3-b]pyridin-4-yl)-3-ethyl-3,6-dihydropyridine-1 (2H)-carboxylate]
> 200	CC(C)(C)OC(=O)N1CCC=C(c2cc(NC(=O)C3CC3)nc3[nH]ccc23)C1 [Example 460, tert-butyl 5-(6-(cyclopropanecarboxamido)-1H-pyrrolo[2,3-b]pyridin-4-yl)-3,6-dihydropyridine-1 (2H)-carboxylate]
20 to 200	CCNC(=S)Nc1ccc(-c2nc(NC(=O)C3CC3)nc3[nH]ccc23)cc1 [Example 466, N-(4-(4-(3-ethylthioureido)phenyl)-7H-pyrrolo[2,3-d]pyrimidin-2-yl)cyclopropanecarboxamide]
20 to 200	CCCNC(=S)Nc1ccc(-c2nc(NC(=O)C3CC3)nc3[nH]ccc23)cc1 [Example 467, N-(4-(4-(3-propylthioureido)phenyl)-7H-pyrrolo[2,3-d]pyrimidin-2-yl)cyclopropanecarboxamide]
20 to 200	CCNC(=S)N1CC=C(c2cc(NC(=O)C3CC3)nc3[nH]ccc23)CC1 [Example 468, N-(4-(1-(ethylcarbamothioyl)-1,2,3,6-tetrahydropyridin-4-yl)-1H-pyrrolo[2,3-b]pyridin-6-yl)cyclopropanecarboxamide]
20 to 200	O=C(Nc1cc(-c2ccc(NCC3CC3)cc2)c2cc[nH]c2n1)C1CC1 [Example 470, N-(4-(4-((cyclopropylmethyl)amino)phenyl)-1H-pyrrolo[2,3-b]pyridin-6-yl)cyclopropanecarboxamide]
< 20	O=C(Nc1nc(-c2ccc(NCc3cccc(F)c3)cc2)c2cc[nH]c2n1)C1CC1 [Example 474, N-(4-(4-((3-fluorobenzyl)amino)phenyl)-7H-pyrrolo[2,3-d]pyrimidin-2-yl)cyclopropanecarboxamide]
< 20	O=C(Nc1nc(-c2ccc(NCc3ccc(Cl)cc3)cc2)c2cc[nH]c2n1)C1CC1 [Example 475, N-(4-(4-((4-chlorobenzyl)amino)phenyl)-7H-pyrrolo[2,3-d]pyrimidin-2-yl)cyclopropanecarboxamide]
> 200	O=C(Nc1nc(-c2ccc(NCCCO)cc2)c2cc[nH]c2n1)C1CC1 [Example 476, N-(4-(4-((3-hydroxypropyl)amino)phenyl)-7H-pyrrolo[2,3-d]pyrimidin-2-yl)cyclopropanecarboxamide]
20 to 200	O=C(Nc1cc(-c2cnn(Cc3ccccc3)c2)c2cc[nH]c2n1)C1CC1 [Example 479, N-(4-(1-benzyl-1H-pyrazol-4-yl)-1H-pyrrolo[2,3-b]pyridin-6-yl)cyclopropanecarboxamide]
> 200	N#Cc1ccc(Cn2cc(-c3nc(NC(=O)C4CC4)nc4[nH]ccc34)cn2)cn1 [Example 482, N-(4-(1-((6-cyanopyridin-3-yl)methyl)-1H-pyrazol-4-yl)-7H-pyrrolo[2,3-d]pyrimidin-2-yl)cyclopropanecarboxamide]
